Earlier results in patent US20070027217A1, “Composition and Method for Preventing Secondary Burn Ischemia” (priority 2005, published 2007).
“Also recorded” adds a separate entry of the source.

Assays:
38% full thickness burn = details: burn victim taking ibuprofen for arthritis
burned hamster model = details: intravenous infusion
burns = details: in vivo

| Structure (SMILES) | hypermetabolic response during recovery (38% full thickness burn) | vasodilation response to burn injury (burned hamster model) | start of restoration of blood flow within interspaces (rat comb burn; injected immediately after burn trauma) [h] | vascular occlusion / blood flow within the interspaces (rat comb burn; systemic application or injection) | vascular occlusion and loss of blood flow in burns (burns) |
| --- | --- | --- | --- | --- | --- |
| CC(C)Cc1ccc(C(C)C(=O)O)cc1 (centres unmarked) [ibuprofen] | failed to show the expected hypermetabolic response | reduction in the vasodilation response | 16 | preserves blood flow; also recorded: restores vessel patency and blood flow |  |
| COc1ccc2c(c1)c(CC(=O)O)c(C)n2C(=O)c1ccc(Cl)cc1 [indomethacin] |  |  |  |  | does not prevent vascular occlusion and loss of blood flow |
